One data set has as its system rat plasma albumin. Nature of the data set: Plasma protein binding (ultracentrifugation), rat. Also: tested at 0.2 µM. Format: in vitro ADME. The protocol: The binding degree of the assay compound to human/mouse/rat/canine/monkey plasma albumin was studied.
• 1) Matrix preparation: on the day of the assay, plasma was thawed in cold water and centrifuged at 3220 rpm for 5 min to remove all clots. The pH of the resulting plasma was measured and adjusted to 7.4±0.1 using 1% phosphoric acid or IN sodium hydroxide as needed. • 2) Dilution procedure for the assay compound: the assay compound was dissolved in dimethyl sulfoxide (DMSO) to prepare stock solutions with concentrations of 10 mM and 2 mM, respectively. A 40 μM working solution was prepared by diluting 2 μL of stock solution (2 mM) with 98 μL of DMSO. A 400 μM working solution of the control compound was prepared by diluting 10 μL of stock solution with 240 μL of DMSO. The working solution of the compound (5 μL) was mixed well with a blank matrix (995 μL) at a ratio of 1:200 to prepare a loading matrix.
• a) An equal volume of 30 μL of loading matrix (n=2) was transferred to a sample collection plate to prepare a time 0 (TO) sample for residue determination. The sample was immediately matched with the corresponding blank buffer to a final volume of 60 μL, and the volume ratio of plasma to buffer in each well was 1:1. […] The mixture was centrifuged at 4000 rpm for 20 min and 100 μL of supernatant from each sample was analyzed by LC-MS/MS.

In the next data set the test system is HT29 tumor cells. The data set is described as follows: In vitro cell proliferation inhibition (CellTiterGlo). Format: cell-based. The conditions noted are these: Homo sapiens, HT-29. The procedure: The ability of the compound to inhibit the proliferation of HT29 tumor cells was measured.
The assay compound was dissolved in 100% DMSO to prepare 10 mM stock solution.
• 1) UV light of a biological safety cabin was turned on, and 30 minutes were counted down; • 2) In a 37° C. water bath, RPMI1640 medium and trypsin were preheated; • 3) After completion of the UV irradiation, the biological safety cabin was opened. The preheated medium, trypsin and phosphate buffered saline (PBS), etc. were wiped with alcohol and placed in the biological safety cabin; • 4) HT29 cells were removed from the incubator, and the old medium was removed in biological safety cabin. 10 ml of PBS was added. The mixture was shaken gently, and then PBS was removed; • 5) 1.5 ml of preheated 0.25% trypsin was added. […] The signal value was then detected. The data were analyzed using XL-Fit, and the IC50 of each compound was calculated.

The target of another data set is ERK2 kinase (Homo sapiens (Human), UniProt P28482). Nature of the data set: ERK2 in vitro kinase activity assay (33P-ATP, MBP substrate, filter-binding). Format: biochemical. The procedure:
The ability of the compound to inhibit ERK1 and ERK2 kinase activity was measured.
20 mM Hepes (pH 7.5), 10 mM MgCl2, 1 mM ethylenebis(oxyethylenenitrilo)tetraacetic acid (EGTA), 0.02% Brij35, 0.02 mg/mL bovine serum albumin (BSA), 0.1 mM Na3VO4, 2 mM dithiothreitol (DTT), 1% DMSO.
The assay compound was dissolved in 100% DMSO to prepare a stock solution of specific concentration. The compound was serially diluted in DMSO solution using Integra Viaflo Assist smart pipette.
• 1) The substrate MBP was prepared in freshly prepared reaction buffer; • 2) ERK1 (or ERK2) kinase was added to the above-mentioned MBP solution and mixed gently; • 3) The compound dissolved in 100% DMSO was added to the kinase reaction system using ultrasound technology (Echo550; nanoliter range), and the mixture was incubated at room temperature for 20 minutes; • 4) 33P-ATP (specific concentration of […]) was added to the reaction system, and the reaction was started at this time; • 5) The mixture was incubated at room temperature for 2 hours; • 6) The amount of radioactivity was detected by filter-binding method; • 7) ERK1 (or ERK2) kinase activity was calculated as the ratio of the remaining kinase activity in the assay sample to the kinase activity of the control group (treated by DMSO). Curve was fitted using Prism (GraphPad software) and IC50 values were calculated. • 5.

Sequence of ERK2 kinase (P28482 whole entry): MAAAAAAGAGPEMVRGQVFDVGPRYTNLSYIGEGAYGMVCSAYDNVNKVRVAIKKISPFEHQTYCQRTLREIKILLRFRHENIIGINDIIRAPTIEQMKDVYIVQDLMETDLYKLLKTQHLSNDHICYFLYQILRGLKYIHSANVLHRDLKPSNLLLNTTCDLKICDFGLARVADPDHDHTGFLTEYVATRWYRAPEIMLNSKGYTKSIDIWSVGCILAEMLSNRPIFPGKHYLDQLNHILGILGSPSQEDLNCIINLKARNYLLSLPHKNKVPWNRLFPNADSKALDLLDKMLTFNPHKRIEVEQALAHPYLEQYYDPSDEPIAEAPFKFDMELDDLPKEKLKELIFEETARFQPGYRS

Turning to `Cc1cccc(CN2C(=O)c3nc(-c4nc(Nc5ccnn5C)ncc4C)sc3C23COC3)n1` [WX001], in the data set on rat plasma albumin, the “Plasma protein binding rate (unbound %)” value came out at 8.4%. Also, the IC50 with HT29 tumor cells came to 66 nM; on ERK2 kinase, 0.54 nM.

The record behind these values is patent publication US20240309018A1, “THIAZOLE-LACTAM-SPIROHETEROCYCLIC COMPOUNDS AND APPLICATIONS THEREOF” (D3 BIO (WUXI) CO., LTD, priority 2021, published 2024).
